Source: PMC6199744, “Development of Chemical Proteomics for the Folateome and Analysis of the Kinetoplastid Folateome” (ACS Infectious Diseases, 2018)
Where two headings read alike, the source gives them in different places.

Test system: T. brucei lysate proteins
Assay type: binding, Trypanosoma brucei
Settings: vehicle control = 1

SMILES: Nc1nc2c(c(=O)[nH]1)N(C=O)C(CNc1ccc(C(=O)N[C@@H](CCC(=O)O)C(=O)O)cc1)CN2 (stereo partly drawn) [LEU, leucovorin]
- fold change (protein TB427.06.3630 SPHINGOSINE 1-PHOSPHATE LYASE, PUTATIVE): 0.94
- fold change (protein TB427.06.3670 PAR[…] COMPONENT, PUTATIVE): 0.77
- fold change vs vehicle control (protein TB427.06.4480 VALYL-TRNA SYNTHETASE, PUTATIVE): 1.07
- fold change (protein TB427.06.4740 IMPORTIN-ALPHA RE-EXPORTER PROTEIN, PUTATIVE): 1.22
- fold change (protein TB427.06.700 ALANYL-TRNA SYNTHETASE, PUTATIVE): 0.94
- fold change vs vehicle control (protein TB427.07.1300 PROTEIN DISULFIDE ISOMERASE, PUTATIVE): 1.76
- fold change (protein TB427.07.1420 HY[…], CONSERVED): 0.96
- fold change (protein TB427.07.2340 40S RIBOSOMAL PROTEIN S15, PUTATIVE): 0.96
- fold change vs vehicle control (protein TB427.07.3160 DYNEIN HEAVY CHAIN, CYTOSOLIC, PUTATIVE): 0.86
- fold change (protein TB427.07.3530 HY[…], CONSERVED): 0.87
- fold change (protein TB427.07.4180 FATTY ACID ELONGASE, PUTATIVE): 0.95
- fold change (protein TB427.07.4970 GLUTAMINE SYNTHETASE, PUTATIVE): 0.91
- fold change vs vehicle control (protein TB427.07.7500 THYMINE-7-HYDROXYLASE, PUTATIVE): 0.97
- fold change (protein TB427.08.2060 HY[…], CONSERVED): 0.77
- fold change (protein TB427.08.3490 HY[…], CONSERVED): 1
- fold change (protein TB427.08.3520 HY[…], CONSERVED): 0.94
- fold change (protein TB427.08.3870 HY[…], CONSERVED): 1.66
- fold change (protein TB427.08.5460 FLAGELLAR CALCIUM-BINDING PROTEIN): 1.21
- fold change (protein TB427.08.5760 HY[…], CONSERVED): 0.93
- fold change (protein TB427.08.6390 LYSOPHOSPHOLIPASE, PUTATIVE): 1.26
- fold change (protein TB427.08.650 CATION-TR[…], PUTATIVE): 0.8
- fold change (protein TB427.10.10020 HY[…], CONSERVED): 0.93
- fold change (protein TB427.10.10350 PROTEIN KINASE, PUTATIVE): 0.95
- fold change (protein TB427.10.10360 MICROTUBULE-[…], PUTATIVE): 0.82
- fold change (protein TB427.10.1060 T-COMPLEX PROTEIN 1, DELTA SUBUNIT, PUTATIVE): 1.18
- fold change vs vehicle control (protein TB427.10.10610 PROTEIN TYROSINE PHOSPHATASE, PUTATIVE): 2.13
- fold change vs vehicle control (protein TB427.10.1100 60S RIBOSOMAL PROTEIN L9, PUTATIVE): 1.1
- fold change vs vehicle control (protein TB427.10.11760 PUMILIO/PUF RNA BINDING PROTEIN 6): 0.98
- fold change (protein TB427.10.12710 HEAT SHOCK PROTEIN, PUTATIVE): 2.54
- fold change vs vehicle control (protein TB427.10.12820 HY[…], CONSERVED): 1.13
- fold change (protein TB427.10.14140 PYRUVATE KINASE 1): 1.34
- fold change vs vehicle control (protein TB427.10.14470 INTR[…] PROTEIN IFT140, PUTATIVE): 1.07
- fold change (protein TB427.10.14890 C-TERMINAL MOTOR KINESIN, PUTATIVE): 1.36
- fold change (protein TB427.10.2020 HEXOKINASE): 1.68
- fold change (protein TB427.10.2290 CHAPERONE PROTEIN DNAJ, PUTATIVE): 0.89
- fold change (protein TB427.10.2350 PYRUVATE DEH[…] E3 BINDING PROTEIN, PUTATIVE): 0.89
- fold change (protein TB427.10.4610 […]-MANNOSE SYNTHASE, PUTATIVE): 0.94
- fold change vs vehicle control (protein TB427.10.5810 HY[…], CONSERVED): 2.19
- fold change (protein TB427.10.5840 T[…] 1-BETA, PUTATIVE): 1.21
- fold change (protein TB427.10.5850 HY[…], CONSERVED): 0.84
- fold change (protein TB427.10.6150 […]/BEIGE PROTEIN, PUTATIVE): 0.73
- fold change (protein TB427.10.6310 MAJOR VAULT PROTEIN, PUTATIVE): 0.82
- fold change (protein TB427.10.730 ATP SYNTHASE, PUTATIVE): 0.81
- fold change vs vehicle control (protein TB427.10.7410 SUCCINYL-COA LIGASE GDP-FORMING] BETA-CHAIN, PUTATIVE): 1.13
- fold change vs vehicle control (protein TB427.10.7630 HY[…], CONSERVED): 1.07
- fold change vs vehicle control (protein TB427.10.8230 PROTEIN DISULFIDE ISOMERASE): 2.42
- fold change (protein TB427.10.8910 HY[…], CONSERVED): 0.93
- fold change vs vehicle control (protein TB927.10.12700 PYRUVATE DEHYDROGENASE E1 ALPHA SUBUNIT, PUTATIVE): 0.9
- fold change (protein TB927.10.12740 HY[…], CONSERVED,ZINC FINGER PROTEIN FAMILY MEMEBER, PUTATIVE): 1.1
- fold change (protein TB927.10.12840 MIT[…] PROTEIN, PUTATIVE): 0.92
- fold change vs vehicle control (protein TB927.10.13290 ETHANOLAMINE PHOSPHOTRANSFERASE (EPT)): 0.95
- fold change vs vehicle control (protein TB927.10.14800 PROTEIN KINASE, PUTATIVE): 1.13
- fold change (protein TB927.10.1550 […]-ATP-ASE SUBUNIT 5): 0.94
- fold change vs vehicle control (protein TB927.10.2890 ENOLASE): 1.93
- fold change (protein TB927.10.2980 […]-ATPASE SUBUNIT 11): 0.91
- fold change vs vehicle control (protein TB927.10.4570 […] 2): 1.87
- fold change (protein TB927.10.4690 DYNEIN LIGHT CHAIN, PUTATIVE): 0.96
- fold change (protein TB927.10.5370 40S RIBOSOMAL PROTEIN S10, PUTATIVE): 1
- fold change vs vehicle control (protein TB927.10.540 ATP-DEPENDENT DEAD/H RNA HELICASE, PUTATIVE): 1.4
- fold change (protein TB927.10.5500 HY[…], CONSERVED): 0.99
- fold change vs vehicle control (protein TB927.10.560 40S RIBOSOMAL PROTEINS S11, PUTATIVE): 1.35
- fold change (protein TB927.10.6050 CLATHRIN HEAVY CHAIN): 0.82
- fold change vs vehicle control (protein TB927.10.8030 HY[…], CONSERVED): 0.97
- fold change vs vehicle control (protein TB927.10.8160 HY[…], CONSERVED): 0.94
- fold change (protein TB927.2.100 RETRO[…] SPOT (RHS) PROTEIN, PUTATIVE,RETRO[…] SPOT PROTEIN 1 (RHS1), PUTATIVE): 1.21
- fold change vs vehicle control (protein TB927.2.2440 […]-ATPASE SUBUNIT 6): 1.21
- fold change (protein TB927.2.3800 MRNA […], PUTATIVE): 0.96
- fold change (protein TB927.3.1240 PROTEIN PHOSPHATASE 2A, PUTATIVE): 0.82
- fold change (protein TB927.3.1840 3-OXO-5-ALPHA-STEROID 4-DEHYDROGENASE, PUTATIVE): 0.93
- fold change vs vehicle control (protein TB927.3.2960 INOSINE-ADENOSINE-GUANOSINE-[…]): 2.01
- fold change (protein TB927.3.3190 SERINE/THREONINE-PROTEIN KINASE, PUTATIVE): 0.93
- fold change vs vehicle control (protein TB927.3.3450 ADP-RI[…]-LIKE PROTEIN 3A, PUTATIVE): 2.74
- fold change vs vehicle control (protein TB927.3.3490 HIGH MOBILITY GROUP PROTEIN, PUTATIVE): 1.29
- fold change vs vehicle control (protein TB927.3.5120 HY[…], CONSERVED (Ankyrin repeats (3 copies), putative)): 1.41
- fold change vs vehicle control (protein TB927.3.740 HY[…], CONSERVED): 0.99
- fold change vs vehicle control (protein TB927.4.2740 HY[…], CONSERVED (p25-alpha, putative)): 2.04
- fold change (protein TB927.4.3590 T[…] 1-BETA, PUTATIVE): 1.21
- fold change vs vehicle control (protein TB927.4.3820 HY[…], CONSERVED): 0.99
- fold change (protein TB927.5.1630 HY[…], CONSERVED): 0.83
- fold change vs vehicle control (protein TB927.5.4440 DYNEIN LIGHT CHAIN, PUTATIVE): 1.1
- fold change (protein TB927.6.2200 HY[…], CONSERVED): 0.98
- fold change vs vehicle control (protein TB927.6.3740 HEAT SHOCK 70 KDA PROTEIN, MIT[…], PUTATIVE): 1.13
- fold change (protein TB927.6.4980 40S RIBOSOMAL PROTEIN S14): 0.97
- fold change vs vehicle control (protein TB927.7.1750 60S RIBOSOMAL PROTEIN L7, PUTATIVE): 1.49
- fold change vs vehicle control (protein TB927.7.4470 HY[…], CONSERVED): 1.31
- fold change vs vehicle control (protein TB927.7.7430 ATP SYNTHASE ALPHA CHAIN, MIT[…]): 1.2
- fold change (protein TB927.8.4330 SMALL GTP-BINDING PROTEIN RAB11): 0.97
- fold change (protein TB927.8.4770 SMALL GTP-BINDING PROTEIN RAB18): 0.93
- fold change vs vehicle control (protein TB927.8.4810 PROHIBITIN 1): 0.99
- fold change (protein TB-292 MEMBRANE ASSOCIATED PROTEIN): 0.88
